Melting point data for 35 molecules are collected here from a melting point compilation (Tetko et al.; mined from patent text by program, amines drawn as free bases though some values may be those of a salt).

Structures are written as SMILES. Where only a bound is given, the exact number is not on record here.

For the molecule `O=CC1c2ccccc2C(C=O)c2c(Cl)cccc21` (stereo not given), the melting point lay within 144 to 146 °C.

`CCCCNC(=O)NS(=O)(=O)c1ccn(C)n1` came in with a melting point of 168 to 169 °C.

The molecule `CN1C[C@H](CCN2CCC(O)(c3ccc(Cl)cc3)CC2)C=C2c3cccc4[nH]cc(c34)C[C@H]21` displayed a melting point of 154 to 157 °C.

For the molecule `CC(=O)OCC12CCC(OC(C)=O)CC1CC=C1C2CCC2(C)C(OC(=O)C(C)(C)C)CCC12O` (stereo not given), the melting point was in the range of 141 to 142 °C.

Regarding `CCCCCCC(=O)Nc1cccc2c1C1(COc3cc4c(cc31)OCCO4)C(=O)N2C` (stereo not given), the melting point is 123 to 124 °C.

For the molecule `COC(=O)c1sccc1NC(=O)OC(C)(C)C`, the melting point was 88 to 89 °C.

The molecule `Cc1ccc(Oc2c(C)cc([N+](=O)[O-])c(C)c2Cl)c(C)c1` had a melting point of 78 to 80 °C.

Molecule `COc1ncc(Cc2n[nH]c(=O)c3ccccc23)cc1Br` registered a melting point of 227 to 228 °C.

As to `CN(C)CCCOc1ccc2c(c1)C(c1ccccc1)CC(=O)N2` (stereo not given), the melting point lay in the range of 134 to 136 °C.

The molecule `ON=Cc1ccc(OCc2csc(-c3ccccc3)n2)cc1` showed a melting point of 175 to 179 °C.

With `CCN(CC)C(=O)c1ccc(C(=C2CCNCC2)c2cccc3cccnc23)cc1`, the melting point was above 170 °C.

`C=CCNC(=S)C(OC)c1ccccn1` (stereo not given) came in with a melting point of 59.5 to 60 °C.

In the case of `COCCN(C)C1CCN(c2ccc(N)cc2C#N)CC1`, the melting point worked out at 88 °C.

Molecule `O=C(O)CNC(=O)CCCc1ccccc1` returned a melting point of 99 to 101 °C.

`Sc1c(Br)cc(Br)c(Br)c1S`: the melting point lay within 125 to 127 °C.

In turn, `N#Cc1ccc(C(N)=O)s1` displayed a melting point of 222 to 223 °C.

For the molecule `Cc1cccc(NC(=O)c2ccccc2CN2C(=O)C3(COc4cc5c(cc43)CCO5)c3ccccc32)c1C` (stereo not given), the melting point is above 230 °C.

Consider `CCCc1cc2c(=O)n3cc(C(N)=O)ccc3nc2s1`, for which the melting point was in the range of 260 to 264 °C.

`FC(F)(F)c1nc2cc(Cl)c(Cl)cc2nc1-c1nc2ccccc2o1` returned a melting point of 157 to 158 °C.

`CC(C)CNC(=O)c1c[nH]c2ncc(-c3nn(C)c4cc(F)ccc34)nc12` registered a melting point of 285 to 287 °C.

As for `CCC1(C(NC(=O)c2ccc(Cl)cc2)NC(=NC#N)Nc2cccnc2)COCOC1` (stereo not given), the melting point fell in the range of 194 to 195 °C.

Molecule `CSC1=Nc2ccc(C(=O)c3cccnc3)cc2CN1` came in with a melting point of 156 °C.

With `CCC(CC)Oc1ccc(-n2cc(C(=O)O)cn2)cc1C#N`, the melting point was 142 to 144 °C.

Regarding `O=C(NN1CCCCC1)C1CN(c2ccc(Cl)cc2)C(c2ccc(Cl)cc2Cl)=N1` (stereo not given), the melting point lay within 113 to 116 °C.

For `CC(O)(CC(=O)O)c1ccc(-c2ccc(F)cc2)cc1` (stereo not given), the melting point fell in the range of 81 to 82 °C.

As to `Clc1ccc(N2C3CCC2CN(Cc2ccccc2)C3)cc1`, the melting point was in the range of 115 to 117 °C.

The molecule `COc1cc2c(cc1-c1c(C)nn(C)c1C)-c1c(-c3cccs3)c3c(n1CC2)C(=O)N(C(C)C)CCN(C(C)=O)C3` displayed a melting point of 178 to 180 °C.

As to `CN(C)CCCN(C=O)C1CCC2C3CCC4CCCCC4(C)C3CCC21C` (stereo not given), the melting point turned out to be 122 °C.

Molecule `CC(=O)NC[C@H]1CN(c2ccc(C3=CCN(C(=O)OCc4ccccc4)CC3)cc2)C(=O)O1` registered a melting point of 166 to 169 °C.

`CCCc1c(C(=O)C(C)C)c2ccc(C(=O)OCc3ccccc3)cc2n1C(=O)c1ccccc1Cl` had a melting point of 67.5 to 70 °C.

Molecule `CCN(CC)CCCNc1ncc2cc(-c3c(Br)cccc3Br)c(N)nc2n1` displayed a melting point of 226 to 230 °C.

The molecule `CCCCCC(CC(=O)Nc1cc(C(N)=O)ccc1C(C)(C)C)c1ccc(C(=O)O)cc1OC` (stereo not given) displayed a melting point of 204 to 206 °C.

For `Cc1ccc(CCN2CCN(c3noc4ccccc34)CC2)c2c1C(C)(C)CCN2`, the melting point was 135 °C.

In turn, `CC(Oc1ncn(-c2ccc(C(F)(F)F)cc2)n1)C(=O)NC1CC1` (stereo not given) displayed a melting point of 175 to 177 °C.

The molecule `C=C(CC(C)C)C(=O)NCC(=O)O` had a melting point of 73 to 80 °C.
